Where two headings read alike, the source gives them in different places. *1 amine or outer side, *2 acyl side, *3 side chain or, on linkers, in order; H or OH if unused. Where a SMILES comes first, the peptide text is derived from it. Bridges are numbered along the chain shown (N, C = ends). [ ]: non-standard residue; d: D form. The star is where a group is joined. X13 = O=C(CN1CCN2CCN3CCN(CC1)CC(=O)[O][Lu]([O]C(=O)C2)[O]C(=O)C3)NCCCOCCOCCOCCCN*; DOTA(In) = O=C1CN2CCN3CCN(CC(=O)*)CCN(CC2)CC(=O)[O][In]([O]1)[O]C(=O)C3; X3 = O=C(O)CN1CCN(CC(=O)O)CCN(CC(=O)NCCCOCCOCCOCCCN*)CCN(CC(=O)O)CC1; NH(1-deoxy-D-glucityl) = OC[C@@H](O)[C@@H](O)[C@H](O)[C@@H](O)CN*; DOTA = O=C(O)CN1CCN(CC(=O)O)CCN(CC(=O)*)CCN(CC(=O)O)CC1; Trp(5-Br) = N[C@@H](Cc1c[nH]c2ccc(Br)cc12)C(=O)O; Trp(5-Cl) = N[C@@H](Cc1c[nH]c2ccc(Cl)cc12)C(=O)O; Pyridine(2,6-diCH2) = c1cc(C[*:1])nc(C[*:2])c1; X10 = O=C(CN(CC(=O)NC(CO)CO)CC(=O)*)NC(CO)CO; Pro(4R-NH2) = N[C@H]1CN[C@H](C(=O)O)C1; X4 = O=C(NCCN[*:2])c1cccc(C[*:1])c1; Glutaryl = O=C(CCCC(=O)[*:2])[*:1]; X6 = c1cc(CSCCN[*:2])nc(C[*:1])c1; X7 = c1cc(CSCCN[*:2])cc(C[*:1])c1; Cya = N[C@@H](CS(=O)(=O)O)C(=O)O; Hyp = O=C(O)[C@@H]1C[C@@H](O)CN1; X1 = O=C(CN1CCC(N[*:1])CC1)[*:2]; Suc = O=C(CCC(=O)[*:2])[*:1]; hSer = N[C@@H](CCO)C(=O)O; NHCH(CH2OH)2 = OCC(CO)N*; dDap = NC[C@@H](N)C(=O)O; Api = NC1(C(=O)O)CCNCC1; Thp = NC1(C(=O)O)CCOCC1; Aib = CC(C)(N)C(=O)O
Assays:
[1] = target: T1, GIPR (CHO-K1-hGIPR cells) (Homo sapiens, UniProt P48546); assay: FACS binding assay
T1 construct: host or cells: CHO-K1
T1 sequence (P48546 22-466): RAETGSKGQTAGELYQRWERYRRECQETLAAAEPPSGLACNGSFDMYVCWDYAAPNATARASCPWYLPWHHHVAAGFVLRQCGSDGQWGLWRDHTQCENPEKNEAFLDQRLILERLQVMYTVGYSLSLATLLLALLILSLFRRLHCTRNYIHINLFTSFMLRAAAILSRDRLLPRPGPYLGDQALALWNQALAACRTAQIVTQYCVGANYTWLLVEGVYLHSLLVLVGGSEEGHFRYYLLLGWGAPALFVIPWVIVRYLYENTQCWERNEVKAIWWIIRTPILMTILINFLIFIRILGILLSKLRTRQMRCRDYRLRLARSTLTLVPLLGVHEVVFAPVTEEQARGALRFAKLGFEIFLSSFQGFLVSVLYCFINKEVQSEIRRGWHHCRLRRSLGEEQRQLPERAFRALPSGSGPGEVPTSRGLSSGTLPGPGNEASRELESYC
Method in brief: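 CHO-K1 cells stably expressing human GIPR were detached with Accutase, suspended at 500.000 cells per mL in PBS with 1% FCS, and washed ice-cold. Bound peptide was detected with 1 μg/mL APC-streptavidin for 30 min on ice.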

[2] = target: T2, human GIP receptor (bioGIPR) (Homo sapiens, UniProt P48546); assay: Surface plasmon resonance (SPR) based binding assay; details: for t1/2 Category: SPR dissociation half-life
T2 construct: Biotinylate extracellular of the human GIP receptor (bioGIPR, Proteros biostructures GmbH, lot #02/2b); purchased Proteros biostructures GmbH lot #02/2b
T2 sequence (P48546 22-138 limits assumed): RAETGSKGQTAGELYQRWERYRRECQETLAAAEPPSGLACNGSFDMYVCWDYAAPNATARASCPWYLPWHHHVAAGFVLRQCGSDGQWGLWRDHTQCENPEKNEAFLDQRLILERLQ
Method in brief: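 Binding was measured at 25 °C by single-cycle kinetics against a reference flow cell, with blank-run and drift correction, after capturing biotinylated GIPR extracellular domain to ~3500 RU. Running buffer: HBST, 0.1% DMSO. A 1:1 Langmuir model gave kinetic rates, KD, t1/2 and pKD.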

[3] = pIC50 Category, competition with 20 nM GIP-057, 4° C., 1 hour
[4] = Single Cycle Kinetic mode, 25° C.
[5] = SPR, Single Cycle Kinetic mode, 25° C., 1:1 Langmuir binding model, read-out: pKD Category (converted)
[6] = competition with 20 nM GIP-057, 4° C., 1 hour, read-out: pIC50 Category (converted)
[7] = competition with 20 nM GIP-057, 4° C. for 1 hour, read-out: pIC50 Category (converted)

Row | Compound | IC50 [1, 3] | Kd [2] | t1/2 Category [2, 4] | Kd [2, 5] | IC50 [1, 6] | IC50 [1, 7]
1 | CC[C@H](C)[C@@H]1NC(=O)[C@H](CC(C)C)NC(=O)C(C)(C)NC(=O)[C@@H](NC(=O)[C@@H](CC(C)C)NC(=O)[C@H](CCC(=O)O)NC(=O)[C@@H]2CCCN2C(=O)[C@H](Cc2c[nH]c3ccc(Cl)cc23)NC(=O)[C@H](Cc2c[nH]c3ccccc23)NC(=O)[C@H](CC(=O)O)NC(=O)CCC(=O)NCCCOCCOCCOCCCNC(=O)CN2CCN3CCN4CCN(CC2)CC(=O)[O][Lu]([O]C(=O)C3)[O]C(=O)C4)CSCc2cccc(c2)CSCCNC1=O [GIP-167, LuDOTA-Ttds-Asp-Trp-5Clw-Pro-Glu-leu-[Cys(3MeBn)-Aib-Leu-Ile-AET]] ({X13-Suc}-DW[Trp(5-Cl)]PE[dL]C[Aib]LI; linker 7-C via X7) | < 10 nM | < 1 nM | A (t1/2 values>15 min) |  |  | 
2 | CC[C@H](C)[C@@H]1NC(=O)[C@H](CC(C)C)NC(=O)C2(CCN(C(=O)CN3CCN4CCN5CCN(CC3)CC(=O)[O][In]([O]C(=O)C5)[O]C(=O)C4)CC2)NC(=O)[C@@H](NC(=O)[C@@H](CC(C)C)NC(=O)[C@H](CCC(=O)O)NC(=O)[C@@H]2C[C@@H](O)CN2C(=O)[C@H](Cc2c[nH]c3ccc(Cl)cc23)NC(=O)[C@H](Cc2c[nH]c3ccccc23)NC(=O)CCC(=O)O)CSCc2cccc(n2)CSCCNC1=O [GIP-169, HO-Succinyl-Trp-5Clw-Hyp-Glu-leu-[Cys(2Lut)-Apc(InDOTA)-Leu-Ile-AET]] (Suc-W[Trp(5-Cl)][Hyp]E[dL]C[Api](DOTA(In))LI; linker 6-C via X6) | < 10 nM |  |  | < 1 nM |  | 
3 | CC[C@H](C)[C@@H]1NC(=O)[C@H](CC(C)C)NC(=O)C(C)(C)NC(=O)[C@@H](NC(=O)[C@@H](CC(C)C)NC(=O)[C@H](CCC(=O)O)NC(=O)[C@@H]2C[C@@H](O)CN2C(=O)[C@H](Cc2c[nH]c3ccc(Cl)cc23)NC(=O)[C@H](Cc2c[nH]c3ccccc23)NC(=O)[C@H](CS(=O)(=O)O)NC(C)=O)CSCc2cccc(n2)CSCCNC1=O [GIP-179, Ac-Cya-Trp-5Clw-Hyp-Glu-leu-[Cys(2Lut)-Aib-Leu-Ile-AET]] (Ac-[Cya]W[Trp(5-Cl)][Hyp]E[dL]C[Aib]LI; linker 7-C via X6) |  |  |  | < 1 nM | < 10 nM | 
4 | CC[C@H](C)[C@@H]1NC(=O)[C@H](CC(C)C)NC(=O)C2(CCOCC2)NC(=O)[C@@H](NC(=O)[C@@H](CC(C)C)NC(=O)[C@H](CCC(=O)O)NC(=O)[C@@H]2C[C@@H](O)CN2C(=O)[C@H](Cc2c[nH]c3ccc(Cl)cc23)NC(=O)[C@H](Cc2c[nH]c3ccccc23)NC(=O)[C@H](CO)NC(C)=O)CSCc2cccc(n2)CSC[C@@H](C(N)=O)NC1=O [GIP-188, Ac-Ser-Trp-5Clw-Hyp-Glu-leu-[Cys(2Lut)-Thp-Leu-Ile-Cys]-NH2] (Ac-SW[Trp(5-Cl)][Hyp]E[dL]C[Thp]LIC-NH2; linker 7-11 via Pyridine(2,6-diCH2)) |  |  | A (t1/2 values>15 min) | < 1 nM | < 10 nM | 
5 | CC[C@H](C)[C@@H]1NC(=O)[C@H](CC(C)C)NC(=O)C2(CCOCC2)NC(=O)[C@@H](NC(=O)[C@@H](CC(C)C)NC(=O)[C@H](CCO)NC(=O)[C@@H]2C[C@@H](O)CN2C(=O)[C@H](Cc2c[nH]c3ccc(Cl)cc23)NC(=O)[C@H](Cc2c[nH]c3ccccc23)NC(=O)[C@H](CC(=O)O)NC(C)=O)CSCc2cccc(n2)CSC[C@@H](C(N)=O)NC1=O [GIP-194, Ac-Asp-Trp-5Clw-Hyp-Hse-leu-[Cys(2Lut)-Thp-Leu-Ile-Cys]-NH2] (Ac-DW[Trp(5-Cl)][Hyp][hSer][dL]C[Thp]LIC-NH2; linker 7-11 via Pyridine(2,6-diCH2)) |  |  | A (t1/2 values>15 min) | < 1 nM | < 10 nM | 
6 | CC[C@H](C)[C@@H]1NC(=O)[C@H](CC(C)C)NC(=O)C2(CCOCC2)NC(=O)[C@@H](NC(=O)[C@@H](CC(C)C)NC(=O)[C@H](CCC(=O)O)NC(=O)[C@@H]2C[C@@H](O)CN2C(=O)[C@H](Cc2c[nH]c3ccc(Br)cc23)NC(=O)[C@H](Cc2c[nH]c3ccccc23)NC(=O)[C@H](CCO)NC(C)=O)CSCc2cccc(n2)CSC[C@@H](C(N)=O)NC1=O [GIP-197, Ac-Hse-Trp-5Brw-Hyp-Glu-leu-[Cys(2Lut)-Thp-Leu-Ile-Cys]-NH2] (Ac-[hSer]W[Trp(5-Br)][Hyp]E[dL]C[Thp]LIC-NH2; linker 7-11 via Pyridine(2,6-diCH2)) |  |  | A (t1/2 values>15 min) | < 1 nM | < 10 nM | 
7 | CC[C@H](C)[C@@H]1NC(=O)[C@H](CC(C)C)NC(=O)C(C)(C)NC(=O)[C@@H](NC(=O)[C@@H](CC(C)C)NC(=O)[C@H](CCC(=O)O)NC(=O)[C@@H]2CCCN2C(=O)[C@H](Cc2c[nH]c3ccc(Cl)cc23)NC(=O)[C@H](Cc2c[nH]c3ccccc23)NC(=O)[C@H](CC(=O)O)NC(=O)CCC(=O)NCCCOCCOCCOCCCNC(=O)CN2CCN(CC(=O)O)CCN(CC(=O)O)CCN(CC(=O)O)CC2)CSCc2cccc(c2)C(=O)NCCNC1=O [GIP-359, DOTA-Ttds-Asp-Trp-5Clw-Pro-Glu-leu-[Cys(3CbBn)-Aib-Leu-Ile-en]] ({X3-Suc}-DW[Trp(5-Cl)]PE[dL]C[Aib]LI; linker 7-C via X4) |  |  | C (t1/2 between 5 min and 2.1 min) | 1 to 7.94 nM |  | 10 to 79.4 nM
8 | CC[C@H](C)[C@@H]1NC(=O)[C@H](CC(C)C)NC(=O)C2(CCN(C(=O)CN3CCN(CC(=O)O)CCN(CC(=O)O)CCN(CC(=O)O)CC3)CC2)NC(=O)[C@@H](NC(=O)[C@@H](CC(C)C)NC(=O)[C@H](CCC(=O)O)NC(=O)[C@@H]2C[C@@H](N)CN2C(=O)[C@H](Cc2c[nH]c3ccc(Cl)cc23)NC(=O)[C@H](Cc2c[nH]c3ccccc23)NC(=O)[C@H](CC(=O)O)NC(=O)CCCC(=O)NC[C@H](O)[C@@H](O)[C@H](O)[C@H](O)CO)CSCc2cccc(n2)CSC[C@@H](C(=O)NC2CCN(CC(=O)N[C@H](CCC(=O)NC(CO)CO)C(=O)NC(CO)CO)CC2)NC1=O [GIP-372, AGLU-Glutar-Asp-Trp-5Clw-Tap-Glu-leu-[Cys(2Lut)-Apc(DOTA)-Leu-Ile-Cys]-APAc-GLUSEROL] ({NH(1-deoxy-D-glucityl)-Glutaryl}-DW[Trp(5-Cl)][Pro(4R-NH2)]E[dL]C[Api](DOTA)LIC[X1][dE](NHCH(CH2OH)2)-{NHCH(CH2OH)2}; linker 7-11 via Pyridine(2,6-diCH2)) |  |  | A (t1/2 values>15 min) | < 1 nM |  | < 10 nM
9 | CC[C@H](C)[C@@H]1NC(=O)[C@H](CC(C)C)NC(=O)C2(CCN(C(=O)CN3CCN(CC(=O)O)CCN(CC(=O)O)CCN(CC(=O)O)CC3)CC2)NC(=O)[C@@H](NC(=O)[C@@H](CC(C)C)NC(=O)[C@H](CCC(=O)O)NC(=O)[C@@H]2C[C@@H](N)CN2C(=O)[C@H](Cc2c[nH]c3ccc(Cl)cc23)NC(=O)[C@H](Cc2c[nH]c3ccccc23)NC(=O)[C@H](CC(=O)O)NC(=O)CN(CC(=O)NC(CO)CO)CC(=O)NC(CO)CO)CSCc2cccc(n2)CSC[C@@H](C(=O)NC2CCN(CC(=O)N[C@H](CNC(=O)CN(CC(=O)NC(CO)CO)CC(=O)NC(CO)CO)C(N)=O)CC2)NC1=O [GIP-373, NTASEROL-Asp-Trp-5Clw-Tap-Glu-leu-[Cys(2Lut)-Apc(DOTA)-Leu-Ile-Cys]-APAc-dap(NTASEROL)-NH2] (X10-DW[Trp(5-Cl)][Pro(4R-NH2)]E[dL]C[Api](DOTA)LIC[X1][dDap](X10)-NH2; linker 7-11 via Pyridine(2,6-diCH2)) |  |  | A (t1/2 values>15 min) | < 1 nM |  | < 10 nM
